How the values were obtained:
[1] = system: BIFC-α-syn C. elegans Parkinson's disease model; assay: Pharyngeal pumping analysis; format: in vivo
Source text: (§1) For this purpose, A C. elegans Parkinson's disease model (Venus-αS) expressing BiFC-α-syn was produced by introducing plasmids that overexpress VN-linked α-synuclein in muscle cells of the pharynx and VC-linked α-synuclein in neurons that form synapses with muscle cells into wild-type Bristol N2 C. elegans purchased from the Caenorhabditis Genetics Center (CGC, University of Minnesota, St. Paul, MN) (Kim D-K et al., (2016). Autophagy. 12(10):1849-1863).

Iba-1 positive microglia = assay: Microglial (Iba-1) staining in substantia nigra and striatum, 6-OHDA model; format: in vivo, C57BL/6 mice; details: 6-OHDA+fexofenadine group; 20 mg/kg orally once a day; 21 days after 6-OHDA injection
Method: Specifically, 8-week-old C57BL/6 mice (Daehan Biolink, Eumseong, North Chungcheong Province, Korea) were anesthetized by intraperitoneal (i.p.) injection of 200 mg/kg of 2,2,2-tribromoethanol (Sigma-Aldrich), and they were placed in a stereotaxic apparatus (David Kopf Instruments, Tujunga, CA, USA) equipped With a mouse adapter.
Activated microglia were analyzed through staining with anti-Iba-1 antibody (Wako, 019-19741, 1:1,000 dilution). The brain tissue preparation and tissue staining method for this purpose were performed in the same manner as the TH staining method in Example 3-1, and the images were analyzed using an Axio scan. Z1 slide scanner (Carl Zeiss, Germany). The cell number was measured and analyzed as the average value of three sheets of each tissue.

[2] = system: Parkinson's disease model (6-OHDA model) mice; assay: Bridge test (acrossing time on a 1 m bar); format: in vivo, C57BL/6 mice; details: 20 mg/kg orally once a day
Method: (§2) Specifically, 8-week-old C57BL/6 mice (Daehan Biolink, Eumseong, North Chungcheong Province, Korea) were anesthetized by intraperitoneal (i.p.) injection of 200 mg/kg of 2,2,2-tribromoethanol (Sigma-Aldrich), and they were placed in a stereotaxic apparatus (David Kopf Instruments, Tujunga, CA, USA) equipped With a mouse adapter. Using a Hamilton syringe (Hamilton, Bonaduz, Switzerland), 2 μL of 6-OHDA-HCl solution (2 mg/mL) (Sigma Aldrich) in 0.02% ascorbic acid was injected into the right striatum at the following stereotactic coordinates (mm from the bregma): IP+1.0; ML-1.8; DV −3.2. The skin was sutured, and the animal was removed from the stereotaxic apparatus and placed on a heating pad for 30 minutes. Normal control mice for the diseased mouse model were injected with a vehicle (0.02% ascorbic acid) instead of 6-OHDA-HCl solution.
(§3) Behavioral experiments were performed 18 days after 6-01-IDA injection, and mice were sacrificed 21 days after 6-01-IDA injection, and histological analysis was performed.
In order to test the animal model's sense of balance, a bridge test was performed to measure the time it took to pass from one side to the other side on a 1 m long bar (acrossing time).

[3] = system: Parkinson's disease model (6-OHDA model) mice; assay: Pole test (landing time); format: in vivo, C57BL/6 mice; details: 20 mg/kg orally once a day
Method: as §2, §3
The mouse was placed on a bar with a diameter of 8 mm and a length of 55 cm, and a pole test was performed to measure the time it took for the mouse's four feet to come down to the floor (landing time).

[4] = system: Parkinson's disease model (6-OHDA model) mice; assay: Cylinder test; format: in vivo, C57BL/6 mice; details: 6-OHDA+fexofenadine group; 20 mg/kg orally once a day
Method: as §2, §3

α-synuclein aggregates = assay: BiFC-α-syn Venus fluorescence in C. elegans Parkinson's disease model; format: in vivo; details: Venus-αS C. elegans; fexofenadine, 2 days at 20° C.; vs control not treated
Source text: as §1

TH-positive neurons = details: 6-OHDA+fexofenadine group; 20 mg/kg orally once a day; 21 days after 6-OHDA injection
Method: as §2, §3

[5] = system: BIFC-α-syn C. elegans Parkinson's disease model; assay: Life-span analysis; format: in vivo
Source text: as §1
For this purpose, eggs laid by adults were grown to the L4 larval stage on NGM plates inoculated with K col. OP50 (CGC) at 20° C. When the L4 stage was reached, they were transferred to NGM plates including […] 5-fluoro-2′-deoxyuridine (Sigma-Aldrich, F0503) to prevent progeny production. The number of living and dead C. elegans was recorded every 1 or 2 days. Worms that burst, were buried or crawled out of the plate were also counted. Survival data were analyzed using OASIS2 (Survival Analysis Online Application for Lifespan Analysis http://sbi.postech.ac.kr/oasis/surv/).

GFAP = GFAP staining in cortex, striatum and substantia nigra, α-synuclein injection model; format: in vivo, C57BL/6 mice; details: PFF-fexofenadine group vs PFF-PBS; 20 mg/kg orally once a day; day 30
Method: The skin was sutured, and the animal was removed from the stereotaxic apparatus and placed on a heating pad for 30 minutes.

[6] = C. elegans wild-type N2 treated with fexofenadine
[7] = 6-OHDA+fexofenadine group, 18 days after 6-OHDA injection
[8] = normal mice (PBS-fexofenadine group)

CC(C)(C(=O)O)c1ccc(C(O)CCCN2CCC(C(O)(c3ccccc3)c3ccccc3)CC2)cc1 (stereo not shown) [fexofenadine]
pharyngeal pumping ability ([1]; C. elegans Parkinson's disease model, 8 days after fexofenadine treatment): restored to a level similar to that of wild-type N2 | pharyngeal pumping ability [1, 6]: improves the pharyngeal pumping ability | number of Iba-1 positive microglia in the ipsilateral side of the striatum and substantia nigra (Iba-1 positive microglia): reduced to a level similar to that of the normal mouse control group | acrossing time [2, 7]: restored to a level similar to that of the normal mouse control group | acrossing time [2, 8]: improved compared to the normal mouse control group | landing time [3, 7]: about 6 seconds | landing time [3, 8]: approximately 4.5 seconds | motor ability (steps of forepaw opposite the damaged striatum vs undamaged) [4]: restored to the level of the normal mouse control group | Venus fluorescence intensity (α-synuclein aggregates): significantly reduced | number of TH-positive neurons on the ipsilateral side of the substantia nigra (TH-positive neurons): recovered to a level similar to that of the normal mouse control group | lifespan [5, 6]: further extended | lifespan ([5]; fexofenadine-treated C. elegans Parkinson's disease model): about 14 days | GFAP expression in the cortex, striatum and substantia nigra, ipsilateral and contralateral sides (GFAP): significantly reduced

Source: US20250213545A1 (AJOU UNIVERSITY INDUSTRY-ACADEMIC COOPERATION FOUNDATION, priority 2022, published 2025)
